Legend:
Assay type in all cases: physicochemical
[1] = Chemical stability by HPLC-UV at 275 nm and 254 nm (Table 9)
Procedure: High Pressure Liquid Chromatography (HPLC) data were obtained according to Tables 6 or 7, below:
A standard stock was dissolved with diluent in a volumetric flask (e.g., 25 mg in 25 mL). This stock was vortexed and sonicated 10 sec to dissolve, and then diluted 1:10, 1:4, and 1:2 either in volumetric flasks or in HPLC vials to generate a standard curve. […] Where appropriate, a blank was created to accurately replicate the matrix of the analytical sample, and peaks appearing in the blank were identified before integration and quantification using Chemstation software.
The chemical stability of Succinate Form A was determined using HPLC-UV at 275 nm and 254 nm.
The chemical stability of Form G was determined using HPLC-UV at 275 nm and 254 nm.

[2] = Aqueous solubility evaluation of Compound 1 salt forms (Example 5, Table 10)
Procedure: For each of the experiments 1 through 5 in Table 10, about 100 mg of solid form was suspended in 1.5 mL of water, and the vial was rolled at RT for about 24 hours (25 r/min). […] Supernatant of experiment 3 was collected by filtration through a 0.45 μm membrane for HPLC analysis. For each of the experiments 6 through 10 in Table 10, about 40 mg of solid form was dissolved in 0.2 mL (0.9 mL for experiment 7) water and then analyzed by HPLC after 24-hour storage at RT.

[3] = Hygroscopicity evaluation by Dynamic Vapor Sorption (DVS) with XRPD of the solids after DVS; settings: for solid form after the DVS test: XRPD of solids after DVS
Procedure: Dynamic Vapor Sorption (DVS) was obtained using a Surface Measurement Systems (SMS) DVS Intrinsic. The relative humidity at 25° C. were calibrated against deliquescence point of LiCl, Mg (NO3)2 and KCl.

[4] = Slurry conversion of Fumarate Forms A, B and C (Example 6, Table 11); settings: RT, about 4 days
Procedure: Slurry conversion of Fumarate Forms A, B, and C was conducted in three different solvents.

[5] = Critical aw between Compound 2 Form G and Form I, slurry turnover in H2O/IPAc (Example 12, Table 26); settings: H2O/IPAc, RT and 50° C., 24 hrs; except aw of 0.8 at RT (close to amorphous)
Procedure: To investigate the critical aw between hydrated Form I and the stable anhydrate, Form G, slurry turnover of Form I and Form G was conducted in a co-solvent system (H2O/IPAc) with different aw at RT and 50° C. Similar mass of Form G and Form I were added into a 2-mL vial, followed by adding solvent and stirring at RT or 50° C. for 24 hrs. The solids obtained were analyzed by XRPD to confirm the form change.

[6] = Slurry turnover of Compound 2 Form B, Form I and Form G (Example 11, Table 25); settings: IPAc and MTBE, RT or 50° C., 24 hours
Procedure: To further study the form identity of Form B and Form I, slurry turnover experiments were performed in two solvents with the addition of Form G. Form B was dissolved in IPAc and MTBE respectively to get saturated solutions. Similar mass of Form B, G and I were weighed into a 2-mL vial, upon which the corresponding saturated solution was added to give the slurry, which was stirred at RT or 50° C. After slurry for 24 hours, the solids obtained were analyzed by XRPD.

[7] = Slurry competition between Compound 2 Form G and Form O for stability evaluation (Example 10, Table 24); settings: IPAc and MTBE, RT and 50° C., 24 hours
Procedure: The slurry competition experiments between the two anhydrates, Form G and Form O, were performed in two solvents, IPAc and MTBE, at RT and 50° C. for stability evaluation. Form O was dissolved in IPAc and MTBE respectively to get saturated solutions. Then, similar masses of Form G and Form O were added into a 2-mL vial, upon which the corresponding saturated solution was added to give the slurry, which was stirred at RT or 50° C. for 24 hours. The solids collected were analyzed by XRPD to confirm the form change.

[8] = Physical stability of Compound 2 Form G over 42 days at varying conditions by XRPD, PLM, DSC/TGA (Table 23)
Procedure: The stability of Compound 2 Form G was tested over 42 days at varying conditions and is reported below in Table 23 and in FIG. 61:
On Day 38, stability samples at 50° C. were exposed to temperatures of approximately 85° C. for 24 hours.

[9] = Aqueous solubility estimation of Compound 2 Form G, Form O and Form I at RT (Example 13, Table 27)
Procedure: Aqueous solubility tests at RT were conducted on the two potential anhydrates, Form G and O, and the hydrated Form I. About 3 mg of each form was weighed into a 2-mL vial. […] of water was added and stirred thoroughly at RT with the speed of 800 RPM.

[10] = ambient conditions and 25° C./60% RH open, 42 days, 254 nm
[11] = 50° C., closed, 42* days (Day 38 excursion to approximately 85° C. for 24 hours)

C[C@H]1CCc2c(ccc(-c3cnn(C4CCNCC4)c3)c2OC2CCC2)N1C(=O)C1CC1.O=C(O)CCC(=O)O [Succinate Form A, (S)-(5-cyclobutoxy-2-methyl-6-(1-(piperidin-4-yl)-1H-pyrazol-4-yl)-3,4-dihydroquinolin-1(2H)-yl)(cyclopropyl)methanone succinate]
chemical degradation by HPLC-UV ([1]; after 42 days at 25° C./60% RH): did not show significant chemical degradation | chemical degradation by HPLC-UV ([1]; after 42 days at temperatures below 40° C.): no significant chemical degradation | solubility in water [2]: > 100 mg FB/mL | behaviour at high humidity (DVS) ([3]; >60% RH, 25° C.): deliquescent | solid form after the DVS test ([3]; succinate): amorphous or jelly solids

C[C@H]1CCc2c(ccc(-c3cnn(C4CCNCC4)c3)c2OC2CCC2)N1C(=O)C1CC1.O=C(O)/C=C/C(=O)O [Fumarate Type A, B and C]
Solid form after slurry conversion ([4]; ACN): Fumarate Form A | Solid form after slurry conversion ([4]; Acetone): Fumarate Form B | Solid form after slurry conversion ([4]; EtOAc): Fumarate Form C

C[C@H]1CCc2c(ccc(-c3cnn(C4CCNCC4)c3)c2OC2CCC2)N1C(=O)C1CC1.O=C(O)CCC(=O)O [Form G, (S)-(5-cyclobutoxy-2-methyl-6-(1-(piperidin-4-yl)-1H-pyrazol-4-yl)-3,4-dihydroquinolin-1(2H)-yl)(cyclopropyl)methanone succinate]
form obtained from slurry of Form G and Form I at different aw (XRPD) [5]: completely converted to Form G | claim of the expected Compound 2 content by HPLC-UV ([1]; all stability samples, 275 nm): 95-107 % claim | impurity increase by HPLC-UV [1, 10]: no significant impurity increase | reduction in purity by HPLC-UV [1, 10]: no reduction in purity | form obtained from slurry of a mixture of Form B, G and I (XRPD) [6]: converted to Form G completely | form obtained from slurry competition of Form G and Form O (XRPD) [7]: converted to Form G completely | solid form after the DVS test ([3]; succinate): amorphous | water absorbed above 70% RH (DVS) ([3]; above 70% RH): about 25.19 % (wt/wt) | hygroscopicity (DVS) ([3]; absorption up to 80% RH, 25° C., succinate): high hygroscopicity | DSC endotherm Temp ([8]; 25° C./60% RH open, 1 days): 125.46 °C | DSC endotherm ΔH ([8]; 25° C./60% RH open, 1 days): 66.76 J/g | TGA % weight loss before 150° C. ([8]; 25° C./60% RH open, 1 days): 0.4580% | DSC endotherm Temp ([8]; 25° C./60% RH open, 3 days): 125.61 °C | DSC endotherm ΔH ([8]; 25° C./60% RH open, 3 days): 63.86 J/g | TGA % weight loss before 150° C. ([8]; 25° C./60% RH open, 3 days): 0.5433% | DSC endotherm Temp ([8]; 25° C./60% RH open, 7 days): 125.68 °C | DSC endotherm ΔH ([8]; 25° C./60% RH open, 7 days): 64.19 J/g | TGA % weight loss before 150° C. ([8]; 25° C./60% RH open, 7 days): 0.5129% | DSC endotherm Temp ([8]; 25° C./60% RH open, 14 days): 125.64 °C | DSC endotherm ΔH ([8]; 25° C./60% RH open, 14 days): 65.95 J/g | TGA % weight loss before 150° C. ([8]; 25° C./60% RH open, 14 days): 0.5232% | DSC endotherm Temp ([8]; 25° C./60% RH open, 21 days): 125.94 °C | DSC endotherm ΔH ([8]; 25° C./60% RH open, 21 days): 64.03 J/g | TGA % weight loss before 150° C. ([8]; 25° C./60% RH open, 21 days): 0.6097% | DSC endotherm Temp ([8]; 25° C./60% RH open, 42 days): 126.50 °C | DSC endotherm ΔH ([8]; 25° C./60% RH open, 42 days): 57.76 J/g | TGA % weight loss before 150° C. ([8]; 25° C./60% RH open, 42 days): 0.6016% | flowability by visual assessment ([8]; 50° C. sample after being exposed to higher temperatures): slight reduction in flowability | physical stability (XRPD, DSC/TGA, PLM) ([8]; 50° C. samples, exposed on Day 38 to approximately 85° C. for 24 hours): physically stable | DSC endotherm Temp [8, 11]: 121.80 °C | DSC endotherm ΔH [8, 11]: 51.32 J/g | TGA % weight loss before 150° C. [8, 11]: 0.7707% | DSC endotherm Temp ([8]; 50° C., closed, 1 days): 125.53 °C | DSC endotherm ΔH ([8]; 50° C., closed, 1 days): 67.41 J/g | TGA % weight loss before 150° C. ([8]; 50° C., closed, 1 days): 0.4716% | DSC endotherm Temp ([8]; 50° C., closed, 3 days): 125.97 °C | DSC endotherm ΔH ([8]; 50° C., closed, 3 days): 59.90 J/g | TGA % weight loss before 150° C. ([8]; 50° C., closed, 3 days): 0.4670% | DSC endotherm Temp ([8]; 50° C., closed, 7 days): 125.97 °C | DSC endotherm ΔH ([8]; 50° C., closed, 7 days): 65.47 J/g | TGA % weight loss before 150° C. ([8]; 50° C., closed, 7 days): 0.5022% | DSC endotherm Temp ([8]; 50° C., closed, 14 days): 125.16 °C | DSC endotherm ΔH ([8]; 50° C., closed, 14 days): 64.27 J/g | TGA % weight loss before 150° C. ([8]; 50° C., closed, 14 days): 0.5893% | DSC endotherm Temp ([8]; 50° C., closed, 21 days): 125.21 °C | DSC endotherm ΔH ([8]; 50° C., closed, 21 days): 64.69 J/g | TGA % weight loss before 150° C. ([8]; 50° C., closed, 21 days): 0.5702% | DSC endotherm Temp ([8]; Initial, 0 days): 125.51 °C | DSC endotherm ΔH ([8]; Initial, 0 days): 63.56 J/g | TGA % weight loss before 150° C. ([8]; Initial, 0 days): 0.5459% | flow properties by visual assessment ([8]; ambient 42 days, 25° C./75% RH 42 days, 50° C. 21 days): good flow properties | DSC endotherm Temp ([8]; ambient, closed, 1 days): 125.59 °C | DSC endotherm ΔH ([8]; ambient, closed, 1 days): 62.59 J/g | TGA % weight loss before 150° C. ([8]; ambient, closed, 1 days): 0.5454% | DSC endotherm Temp ([8]; ambient, closed, 3 days): 125.61 °C | DSC endotherm ΔH ([8]; ambient, closed, 3 days): 63.01 J/g | TGA % weight loss before 150° C. ([8]; ambient, closed, 3 days): 0.5338% | DSC endotherm Temp ([8]; ambient, closed, 7 days): 125.41 °C | DSC endotherm ΔH ([8]; ambient, closed, 7 days): 63.00 J/g | TGA % weight loss before 150° C. ([8]; ambient, closed, 7 days): 0.5540% | DSC endotherm Temp ([8]; ambient, closed, 14 days): 125.52 °C | DSC endotherm ΔH ([8]; ambient, closed, 14 days): 63.86 J/g | TGA % weight loss before 150° C. ([8]; ambient, closed, 14 days): 0.4133% | DSC endotherm Temp ([8]; ambient, closed, 21 days): 125.38 °C | DSC endotherm ΔH ([8]; ambient, closed, 21 days): 67.51 J/g | TGA % weight loss before 150° C. ([8]; ambient, closed, 21 days): 0.8085% | DSC endotherm Temp ([8]; ambient, closed, 42 days): 125.35 °C | DSC endotherm ΔH ([8]; ambient, closed, 42 days): 66.56 J/g | TGA % weight loss before 150° C. ([8]; ambient, closed, 42 days): 0.4578% | change in physical form by XRPD, PLM or DSC/TGA ([8]; storage conditions below 75% RH, after 42 days): no significant change in physical form | Observation Initial ([9]; about 3 mg in 50 μL water, initial, succinate): Clear | solubility at 2 h ([9]; thermodynamic from solid, water, stirring 2 hrs at 800 RPM): > 60 mg/mL

— patent US20210261528A1, “SALTS OF (S)-(5-CYCLOBUTOXY-2-METHYL-6-(1-(PIPERIDIN-4-YL)-1H-PYRAZOL-4-YL)-3,4-DIHYDROQUINOLIN-1(2H)-YL)(CYCLOPROPYL)METHANONE AND SOLID FORMS THEREOF” (FORMA Therapeutics, Inc., priority 2018, published 2021)
